According to US20240246941A1, “SUBSTITUTED 4-(3-AMINOPROP-1-YL)AMINOQUINOLINE ANALOGS AS MODULATORS OF MELANOMA-ASSOCIATED ANTIGEN 11 UBIQUITIN LIGASE” (ST. JUDE CHILDREN'S RESEARCH HOSPITAL, INC., priority 2020, published 2024):
pIC50: −log10 of the molar value.

Each compound was assayed against interaction between GST-MAGEA11 MHD and FAM-PCF11_4 peptide (MAGE-A11:PCF11) (Homo sapiens (Human), UniProt P43364) (assay: TR-FRET dose response competition assay for disruption of MAGE-A11:PCF11 binding). Conditions: Dose response TR-FRET screening of nine scaffold groups against MAGE-A11:PCF11; read-out: consensus IC50.
In short: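 Competition TR-FRET at room temperature in 50 mM Tris pH 7.5, 20 mM MgCl2, 0.1 mg/ml BSA, 1 mM DTT: final 5 nM GST-MAGEA11 MHD, 5 nM Tb-anti-GST, 200 nM FAM-PCF11_4, 90 min. Ratio 520/490 nm converted to % inhibition; IC50 from sigmoidal fit.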

Chain of interaction between GST-MAGEA11 MHD and FAM-PCF11_4 peptide (MAGE-A11:PCF11) (P43364 218-429): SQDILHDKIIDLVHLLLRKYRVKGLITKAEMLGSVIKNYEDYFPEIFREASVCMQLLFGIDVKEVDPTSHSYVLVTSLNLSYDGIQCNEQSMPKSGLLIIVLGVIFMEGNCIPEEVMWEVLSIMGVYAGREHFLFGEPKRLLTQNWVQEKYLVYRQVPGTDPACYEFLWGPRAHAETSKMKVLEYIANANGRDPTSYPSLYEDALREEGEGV

CCCN1C(=O)c2ccccc2NC1c1ccc(O)c(OC)c1 (stereo not drawn) [SJ000295722-1] and CCCN1C(=O)c2ccccc2NC1c1ccc(OC)c(OC)c1 (stereo not drawn) [SJ000026517-1] are the same in pIC50: 4.16 for the first, 4.16 for the second.

CCCCn1c(=O)[nH]c(=O)c2c1nc(-c1ccc(C)c([N+](=O)[O-])c1)n2CC [SJ000378919-1] and CCCCn1c(=O)[nH]c(=O)c2c1nc(-c1ccc(OC)c(C)c1)n2C [SJ000425256-1] are the same in pIC50: 4.16 for the first, 4.16 for the second.

CCCn1c(-c2cccc(F)c2)nc2c1c(=O)[nH]c(=O)n2Cc1ccccc1 [SJ000382299-1] and CCCn1c(-c2cc(Br)ccc2F)nc2c1c(=O)[nH]c(=O)n2Cc1ccccc1 [SJ000437843-1] are the same in pIC50: 4.16 for the first, 4.16 for the second.

CSc1nc2cc(-c3ccccc3)sc2c(=O)n1CCN1CCOCC1 [SJ000405932-1] and CC(C)(C)C(=O)CSc1nc2cc(-c3ccccc3)sc2c(=O)n1CCN1CCOCC1 [SJ000451590-1] are the same in pIC50: 4.16 for the first, 4.16 for the second.

CCn1c(-c2ccc(O)c(OC)c2)nc2c1c(=O)[nH]c(=O)n2Cc1ccccc1 [SJ000430392-1] and CCCn1c(-c2ccc(OC(F)F)cc2)nc2c1c(=O)[nH]c(=O)n2Cc1ccccc1 [SJ000376621-1] are the same in pIC50: 4.16 for the first, 4.16 for the second.

Compared with COc1cccc(CNCCCNc2ccnc3cc(Oc4ccc(C(C)(C)C)cc4)ccc23)c1O [SJ000311235-1], COc1ccc(F)cc1CNCCCNc1ccnc2cc(Oc3ccc(F)cc3)ccc12 [SJ000311225-1] is 0.96 log units lower in pIC50: 5.12 for the first, 4.16 for the second.

CCCCCCCCOc1ccc(NC2=C(N)C(=O)c3ccccc3C2=O)cc1 [SJ000562629-1] and O=C1C(Cl)=C(Nc2ccc(Br)cc2)C(=O)c2ccccc21 [SJ000024921-1] are within 0.2 log units of each other in pIC50: 4.26 for the first, 4.16 for the second.

CCOC(=O)Cn1cnc2cc(-c3ccc(OC)cc3)sc2c1=O [SJ000399862-1] and COc1ccc(-c2cc3ncn(CC(=O)NCc4ccccc4Cl)c(=O)c3s2)cc1 [SJ000449845-1] are the same in pIC50: 4.16 for the first, 4.16 for the second.

Compared with CN(C)c1ccc(NC2=C(Cl)C(=O)c3ccccc3C2=O)cc1 [SJ000109503-1], CCOc1ccc(N(C(C)=O)C2=C(N)C(=O)c3ccccc3C2=O)cc1 [SJ000558312-2] is 1.30 log units lower in pIC50: 5.48 for the first, 4.18 for the second. The first is the more potent here.

COCCNC(=O)Cn1cnc2cc(-c3ccc(Cl)cc3)sc2c1=O [SJ000395304-1] and COc1cccc(F)c1CNCCCNc1ccnc2cc(Cl)ccc12 [SJ000311328-2] are the same in pIC50: 4.16 for the first, 4.16 for the second.

Compared with CCn1c2ccccc2c2cc(CNC3CCCCC3)ccc21 [SJ000550865-1], CCCS(=O)(=O)N1CCN(Cc2ccc3c(c2)c2ccccc2n3CC)CC1 [SJ000167951-1] is 0.56 log units higher in pIC50: 4.16 for the first, 4.72 for the second.

Clc1ccc2c(NCCCNCc3ccc4c(c3)OCO4)ccnc2c1 [SJ000523056-1] and COc1ccc(CNCCCNc2ccnc3cc(Cl)ccc23)cc1 [SJ000523059-1] are the same in pIC50: 4.16 for the first, 4.16 for the second.

COc1ccc(F)c(CNCCCNc2ccnc3cc(C(F)(F)F)ccc23)c1 [SJ000521058-1] and FC(F)(F)c1ccc2c(NCCCNCc3cccc4c3OCO4)ccnc2c1 [SJ000521048-1] are the same in pIC50: 4.16 for the first, 4.16 for the second.

CCCn1c(=O)[nH]c(=O)c2c1nc(-c1ccc(OC(F)F)c(OC)c1)n2CCOC [SJ000459257-1] and CCCn1c(=O)[nH]c(=O)c2c1nc(-c1cccc(F)c1)n2CCOC [SJ000378928-1] are the same in pIC50: 4.16 for the first, 4.16 for the second.

First: FC(F)(F)Oc1ccc(CNCCCNc2ccnc3cc(C(F)(F)F)ccc23)cc1 [SJ000521050-1]
Second: COc1ccc(F)cc1CNCCCNc1ccnc2cc(Cc3ccc(F)cc3)ccc12 [SJ000311245-1]
The pIC50 of the first is 0.30 log units lower: 4.16 for the first, 4.46 for the second. The second is the more potent here.

N#Cc1nc(-c2ccc(F)cc2)oc1N1CCOCC1 [SJ000011204-1] and COP(=O)(OC)c1nc(-c2ccc([N+](=O)[O-])cc2)oc1N1CCOCC1 [SJ000092444-1] are the same in pIC50: 4.16 for the first, 4.16 for the second.

Cc1ccccc1-c1nc(S(=O)(=O)c2ccc(Cl)cc2)c(N2CC(C)OC(C)C2)o1 (stereo not drawn) [SJ000329051-1] and CC1CN(c2oc(-c3ccc(Cl)cc3)nc2C#N)CC(C)O1 (stereo not drawn) [SJ000478208-1] are the same in pIC50: 4.16 for the first, 4.16 for the second.

CN(C)CCCNC(=O)c1ccc2[nH]c3ccccc3c2c1 [SJ000123281-1] and CCn1c2ccccc2c2cc(C(C)NC=O)ccc21 (stereo not drawn) [SJ000461805-1] are the same in pIC50: 4.16 for the first, 4.16 for the second.

CCOC(=O)COc1ccc(-c2nc3c(=O)n(C)c(=O)n(C)c3[nH]2)cc1OC [SJ000140137-1] and Cc1cc(-c2nc3c(c(=O)[nH]c(=O)n3C)n2C)ccc1Cl [SJ000517919-1] are the same in pIC50: 4.16 for the first, 4.16 for the second.

COc1cccc(CNCCCNc2ccnc3cc(CCc4ccccc4)ccc23)c1O [SJ000311255-1] and COc1cccc(CNCCCNc2ccnc3cc(CC4CCCCC4)ccc23)c1O [SJ000311251-1] are within 0.2 log units of each other in pIC50: 4.58 for the first, 4.53 for the second.

First: COc1ccc(Oc2ccc3c(NCCCNCc4cccc5c4OCO5)ccnc3c2)cc1 [SJ000311220-1]
Second: COc1ccccc1Oc1ccc2c(NCCCNCc3cccc4c3OCO4)ccnc2c1 [SJ000311212-1]
The pIC50 of the first is 0.20 log units higher: 4.36 for the first, 4.16 for the second.

First: COc1ccc(F)cc1CNCCCNc1ccnc2cc(CC3CCCCC3)ccc12 [SJ000311253-1]
Second: COc1ccc(F)cc1CNCCCNc1ccnc2cc(Cc3c(Cl)cccc3Cl)ccc12 [SJ000311317-1]
The pIC50 of the first is 0.33 log units lower: 4.58 for the first, 4.91 for the second. The second is the more potent here.

O=C1OCC(c2ccc(Cl)cc2)=C1c1ccc([N+](=O)[O-])cc1 [SJ000413143-1] and CS(=O)(=O)c1ccc(C2=C(c3ccccc3)C(=O)OC2)cc1 [SJ000285362-5] are within 0.2 log units of each other in pIC50: 4.16 for the first, 4.17 for the second.

COc1ccc(C2Nc3ccccc3C(=O)N2Cc2ccccc2)cc1CN1C(=O)c2ccccc2C1=O (stereo not drawn) [SJ000295698-1] and CCCN1C(=O)c2ccccc2NC1c1ccc(OC)cc1 (stereo not drawn) [SJ000026518-2] are the same in pIC50: 4.16 for the first, 4.16 for the second.

Compared with Cc1ccc(-c2nc(S(=O)(=O)c3ccccc3)c(N3CCOCC3)o2)cc1 [SJ000159484-1], Cc1ccc(S(=O)(=O)c2nc(-c3cccc(C)c3)oc2N2CCOCC2)cc1 [SJ000027480-1] is 0.79 log units higher in pIC50: 4.16 for the first, 4.95 for the second. The second is the more potent here.

Going from Fc1ccc(-c2ccc3c(NCCCNCc4cccc5c4OCO5)ccnc3c2)cc1 [SJ000311240-1] to CCn1c2ccccc2c2cc(CNCCc3ccc(Cl)cc3)ccc21 [SJ000112458-1], the pIC50 falls from 4.60 to 4.16 (0.44 log units). The first is the more potent here.

CCc1ccc(-c2nc3c(c(=O)[nH]c(=O)n3CC(C)C)n2CCOC)cc1 [SJ000420343-1] and CCn1c2ccccc2c2cc(CN3CCc4nnc(CNS(=O)(=O)C(C)C)n4CC3)ccc21 [SJ000307753-1] are the same in pIC50: 4.16 for the first, 4.16 for the second.

CCn1c2ccccc2c2cc(CNCc3ccc(OC)cc3)ccc21 [SJ000112430-1] gave a pIC50 of 4.16.

Same assay, conditions: Table 5, dose response TR-FRET screening of 59 quinoline compounds against MAGE-A11:PCF11; read-out: TR-FRET IC50

CCCN(CCCNc1ccnc2cc(C(F)(F)F)ccc12)Cc1ccc(CC)cc1 [SJ000521009-2] and CCCN(CCCNc1ccnc2cc(Cl)ccc12)Cc1ccc(CC)cc1 [SJ000523001-1] cannot be ordered by pIC50: less than 4.15 for the first, less than 4.15 for the second.

Clc1ccc(Oc2ccc3c(NCCCNCc4ccco4)ccnc3c2)cc1 [SJ000311226-1] and CCCN(CCCNc1ccnc2cc(Cl)ccc12)Cc1ccc2ccccc2c1 [SJ000523040-1] cannot be ordered by pIC50: less than 4.15 for the first, less than 4.15 for the second.

Cc1ccc(C)c(CN(CCCCNc2ccnc3cc(Cl)ccc23)Cc2ccccc2)c1 [SJ000361209-2] and CCCN(CCCNc1ccnc2cc(C(F)(F)F)ccc12)CCC(C)(C)C [SJ000520476-1] cannot be ordered by pIC50: less than 4.15 for the first, less than 4.15 for the second.

Same assay, conditions: Table 6, 4-aminoquinoline compounds; read-out: TR-FRET, IC50

Work on c1ccc(-c2ccc3c(NCCCNCc4cccc5c4OCO5)ccnc3c2)cc1 [SJ000311284-01] yielded a pIC50 of 4.69.

Same assay, conditions: Table 8, representative compounds; read-out: TR-FRET IC50

Going from CCc1ccc(CNCCCNc2ccnc3cc(Cl)ccc23)cc1 [SJ000521039] to Clc1ccc2c(NCCCNCc3ccc(-c4ccccc4)cc3)ccnc2c1 [SJ000523064], the pIC50 rises from 4.16 to 4.46 (0.30 log units). The second is the more potent here.

Compared with COc1cccc(CNCCCNc2ccnc3cc(-c4cc(C(F)(F)F)cc(C(F)(F)F)c4)ccc23)c1O [SJ000311271], COc1cccc(CNCCCNc2ccnc3cc(-c4ccc5c(c4)OCO5)ccc23)c1O [SJ000311291] is 0.45 log units higher in pIC50: 4.16 for the first, 4.61 for the second. The second is the more potent here.

Going from Clc1ccc(Oc2ccc3c(NCCCNCc4cccc5c4OCO5)ccnc3c2)cc1 [SJ000311228] to c1ccc(Oc2ccc3c(NCCCNCc4cccc5c4OCO5)ccnc3c2)cc1 [SJ000311208], the pIC50 falls from 4.75 to 4.52 (0.23 log units).

COc1ccc(F)c(CNCCCNc2ccnc3cc(Cl)ccc23)c1 [SJ000521030] and COc1cccc(F)c1CNCCCNc1ccnc2cc(Cl)ccc12 [SJ000311328] are the same in pIC50: 4.16 for the first, 4.16 for the second.

COc1cccc(CNCCCNc2ccnc3cc(Cc4ccc(F)cc4)ccc23)c1O [SJ000311243] and COc1cccc(CNCCCNc2ccnc3cc(Oc4ccc(F)cc4)ccc23)c1O [SJ000311223] are within 0.2 log units of each other in pIC50: 4.36 for the first, 4.21 for the second.

Compared with COc1cc(Cc2ccc3c(NCCCNCc4cc(F)ccc4OC)ccnc3c2)cc(OC)c1 [SJ000311313], COc1ccc(F)cc1CNCCCNc1ccnc2cc(-c3cccc4ccccc34)ccc12 [SJ000311277] is 0.52 log units higher in pIC50: 4.47 for the first, 4.99 for the second.

FC(F)(F)c1ccc2c(NCCCNCc3ccccc3C(F)(F)F)ccnc2c1 [SJ000521049] and Fc1ccc2c(NCCCNCc3ccc(OC(F)(F)F)cc3)ccnc2c1 [SJ000834150] cannot be ordered by pIC50: 4.16 for the first, less than 4.17 for the second.

Compared with CCc1ccc(OCc2ccccc2C(=O)Nc2ccc3nc(C)cc(N)c3c2)cc1 [SJ000855285], c1ccc(-c2ccc3c(NCCCNCc4cccc5c4OCO5)ccnc3c2)cc1 [SJ000311284-01] is 0.38 log units lower in pIC50: 5.03 for the first, 4.65 for the second.

COc1cccc(CNCCCNc2ccnc3cc(CC4CCCCC4)ccc23)c1O [SJ000311251] and CC(C)(C)c1ccc(O)c(CNCCCNc2ccnc3cc(Cl)ccc23)c1 [SJ000311193] are within 0.2 log units of each other in pIC50: 4.53 for the first, 4.52 for the second.

Cc1cc(C)c(CNCCCNc2ccnc3cc(Cl)ccc23)c(C)c1 [SJ000520911] and O=[N+]([O-])c1ccc(CNCCCNc2ccnc3cc(Cl)ccc23)cc1O [SJ000311191] are within 0.2 log units of each other in pIC50: 4.17 for the first, 4.16 for the second.

CC[C@@]1(O)C(=O)OCc2c1cc1n(c2=O)Cc2cc3ccccc3nc2-1 [SJ000285410] showed a pIC50 of less than 4.26.

Same assay, conditions: read-out: IC50 by TR-FRET for disrupting MAGE-A11:PCF11 interaction

Work on c1ccc(-c2ccc3c(NCCCNCc4cccc5c4OCO5)ccnc3c2)cc1 [SJ000311284-01] yielded a pIC50 of 4.69.
